Like-named read-outs stand apart in the source and are kept apart here.

Assay [1] deals with NV in replicon harboring cells (HG23 cells). In words: Cell-based assay: virus replication in NV replicon harboring cells (HG23 cells), qRT-PCR. Also noted: species or system norovirus (NV). How it is done:
The effects of each inhibitor on virus replication were examined against NV in the NV replicon harboring cells (HG23 cells). Briefly, confluent and semi-confluent HG23 cells were incubated with medium containing DMSO (<0.1%) or each compound (up to 200 uM) for 48 h. After the incubation, total RNA was extracted and viral genome was quantitated with real-time quantitative RT-PCR (qRT-PCR). The EC50 values were determined by GraphPadPrism software.

The target in assay [2] is norovirus 3CL protease (NV 3CLpro) (Norovirus, UniProt Q83883). The assay is described as follows: FRET protease assay (3CL protease), enzyme inhibition. The class given is biochemical. How it is done: FRET protease assays. The FRET protease assay (3CL protease) was performed by preparing stock solutions of the substrate (Edans-DFHLQ/GP-Dabcyl, SEQ ID NO:1) and inhibitor in DMSO and diluting into assay buffer which was comprised of 20 mM HEPES buffer, pH 8, containing NaCl (200 mM), 0.4 mM EDTA, glycerol (60%), and 6 mM dithiothreitol (DTT). The protease was mixed with serial dilutions of each compound up to 100 μM or with DMSO in 25 μL of assay buffer and incubated at 37° C. for 30 min, followed by the addition of 25 μL of assay buffer containing substrate. Fluorescence readings were obtained using an excitation wavelength of 360 nm and an emission wavelength of 460 nm on a fluorescence microplate reader (FLx800; Biotec, Winoosk, Vt.) 1 h following the addition of substrate. Relative fluorescence units (RFU) were determined by subtracting background values (substrate-containing well without protease) from the raw fluorescence values. The dose-dependent FRET inhibition curves were fitted with a variable slope by using GraphPad Prism software (GraphPad, La Jolla, Calif.) in order to determine the IC50 values of the inhibitors.

[3] abbreviates: Table 1, ester prodrugs, HG23 cells, 48 h, read-out: EC50 (50% effective concentration in cell culture).
Where [4] appears, read: Table 1, ester prodrugs, average of at least two determinations, read-out: IC50 (50% inhibitory concentration in the enzyme assay).
The mark [5] stands for this setting: Table 2, carbamate prodrugs, HG23 cells, 48 h, read-out: EC50.
[6] abbreviates: Table 2, carbamate prodrugs, read-out: IC50.

norovirus 3CL protease (NV 3CLpro), sequence (Q83883 1101-1281): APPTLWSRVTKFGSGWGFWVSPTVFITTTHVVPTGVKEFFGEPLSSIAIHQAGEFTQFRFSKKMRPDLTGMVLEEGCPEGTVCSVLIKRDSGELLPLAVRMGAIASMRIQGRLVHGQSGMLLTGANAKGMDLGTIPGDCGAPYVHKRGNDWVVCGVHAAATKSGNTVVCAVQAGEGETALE

Consider `CC(=O)OC([C@H](C[C@@H]1CCNC1=O)NC(=O)[C@H](CC(C)C)NC(=O)OCc1ccccc1)S(=O)(=O)O` (stereo partly drawn) [Compound 1, (5S,8S)-5-Isobutyl-3,6,11-trioxo-8-(((S)-2-oxopyrrolidin-3-yl)methyl)-1-phenyl-2,10-dioxa-4,7-diazadodecane-9-sulfonate], for which, in assay [1] (setting [3]), the EC50 was 0.6 µM. Moreover, in assay [2] (setting [4]), the IC50 is 10500 nM.

In the case of `CCC(=O)OC([C@H](C[C@@H]1CCNC1=O)NC(=O)[C@H](CC(C)C)NC(=O)OCc1ccccc1)S(=O)(=O)O` (stereo partly drawn) [Compound 2, (5S,8S)-5-Isobutyl-3,6,11-trioxo-8-(((S)-2-oxopyrrolidin-3-yl)methyl)-1-phenyl-2,10-dioxa-4,7-diazatridecane-9-sulfonate], the EC50 in assay [1] (setting [3]) was 0.7 µM. In assay [2] (setting [4]), the IC50 was 7500 nM.

Turning to `CCCC(=O)OC([C@H](C[C@@H]1CCNC1=O)NC(=O)[C@H](CC(C)C)NC(=O)OCc1ccccc1)S(=O)(=O)O` (stereo partly drawn) [Compound 3, (5S,8S)-5-Isobutyl-3,6,11-trioxo-8-(((S)-2-oxopyrrolidin-3-yl)methyl)-1-phenyl-2,10-dioxa-4,7-diazatetradecane-9-sulfonate], the EC50 in assay [1] (setting [3]) worked out at 1.3 µM. Moreover, the IC50 in assay [2] (setting [4]) was 3700 nM.

Consider `CCCCC(=O)OC([C@H](C[C@@H]1CCNC1=O)NC(=O)[C@H](CC(C)C)NC(=O)OCc1ccccc1)S(=O)(=O)O` (stereo partly drawn) [Compound 4, (5S,8S)-5-Isobutyl-3,6,11-trioxo-8-(((S)-2-oxopyrrolidin-3-yl)methyl)-1-phenyl-2,10-dioxa-4,7-diazapentadecane-9-sulfonate], for which, in assay [1] (setting [3]), the EC50 is 1.4 µM. Further, the IC50 in assay [2] (setting [4]) was 3500 nM.

With `CCCCCC(=O)OC([C@H](C[C@@H]1CCNC1=O)NC(=O)[C@H](CC(C)C)NC(=O)OCc1ccccc1)S(=O)(=O)O` (stereo partly drawn) [Compound 5, (5 S, 8S)-5-Isobutyl-3,6,11-trioxo-8-(((S)-2-oxopyrrolidin-3-yl)methyl)-1-phenyl-2,10-dioxa-4,7-diazahexadecane-9-sulfonate], the EC50 in assay [1] (setting [3]) was 0.3 µM. The IC50 in assay [2] (setting [4]) stood at 2800 nM.

`CCCCCCCC(=O)OC([C@H](C[C@@H]1CCNC1=O)NC(=O)[C@H](CC(C)C)NC(=O)OCc1ccccc1)S(=O)(=O)O` (stereo partly drawn) [Compound 6, (5S,8S)-5-Isobutyl-3,6,11-trioxo-8-(((S)-2-oxopyrrolidin-3-yl)methyl)-1-phenyl-2,10-dioxa-4,7-diazaoctadecane-9-sulfonate]: the EC50 in assay [1] (setting [3]) worked out at 0.5 µM. Also, the IC50 in assay [2] (setting [4]) worked out at 3000 nM.

In the case of `CC(C)C[C@H](NC(=O)OCc1ccccc1)C(=O)N[C@@H](C[C@@H]1CCNC1=O)C(OC(=O)c1ccccc1)S(=O)(=O)O` (stereo partly drawn) [Compound 7, (5S,8S)-5-Isobutyl-3,6,11-trioxo-8-(((S)-2-oxopyrrolidin-3-yl)methyl)-1,11-diphenyl-2,10-dioxa-4,7-diazaundecane-9-sulfonate], in assay [1] (setting [3]), the EC50 was determined as 0.8 µM. Also, the IC50 in assay [2] (setting [4]) was 7200 nM.

`CC(C)C[C@H](NC(=O)OCc1ccccc1)C(=O)N[C@@H](C[C@@H]1CCNC1=O)C(OC(=O)C(C)C)S(=O)(=O)O` (stereo partly drawn) [Compound 8, (5S,8S)-5-Isobutyl-12-methyl-3,6,11-trioxo-8-(((S)-2-oxopyrrolidin-3-yl)methyl)-1-phenyl-2,10-dioxa-4,7-diazatridecane-9-sulfonate]: the EC50 in assay [1] (setting [3]) is 0.3 µM. For the same compound, the IC50 in assay [2] (setting [4]) was 3500 nM.

For `CC(=O)OC([C@H](C[C@@H]1CCNC1=O)NC(=O)[C@H](CC1CCCCC1)NC(=O)OCc1cccc(Cl)c1)S(=O)(=O)O` (stereo partly drawn) [Compound 9, (5 S, 8S)-1-(3-Chlorophenyl)-5-(cyclohexylmethyl)-3,6,11-trioxo-8-(((S)-2-oxopyrrolidin-3-yl)methyl)-2,10-dioxa-4,7-diazadodecane-9-sulfonate], the EC50 in assay [1] (setting [3]) came out at 0.03 µM. Besides, the IC50 in assay [2] (setting [4]) came to 80 nM.

In the case of `CCC(=O)OC([C@H](CC1CCNC1=O)NC(=O)[C@H](CC1CCCCC1)NC(=O)OCc1cccc(Cl)c1)S(=O)(=O)O` (some centres unmarked) [Compound 10, (5 S, 8S)-1-(3-chlorophenyl)-5-(cyclohexylmethyl)-3,6,11-trioxo-8-((2-oxopyrrolidin-3-yl)methyl)-2,10-dioxa-4,7-diazatridecane-9-sulfonate], the EC50 in assay [1] (setting [3]) was found to be 0.025 µM. For the same compound, the IC50 in assay [2] (setting [4]) was found to be 100 nM.

Regarding `CCCCCCCC(=O)OC([C@H](C[C@@H]1CCNC1=O)NC(=O)[C@H](CC1CCCCC1)NC(=O)OCc1cccc(Cl)c1)S(=O)(=O)O` (stereo partly drawn) [Compound 12, (5 S, 8S)-1-(3-Chlorophenyl)-5-(cyclohexylmethyl)-3,6,11-trioxo-8-(((S)-2-oxopyrrolidin-3-yl)methyl)-2,10-dioxa-4,7-diazaoctadecane-9-sulfonate], the EC50 in assay [1] (setting [3]) came to 0.03 µM. Besides, the IC50 in assay [2] (setting [4]) was 900 nM.

With `CC(C)C(=O)OC([C@H](C[C@@H]1CCNC1=O)NC(=O)[C@H](CC1CCCCC1)NC(=O)OCc1cccc(Cl)c1)S(=O)(=O)O` (stereo partly drawn) [Compound 13, (5 S, 8S)-1-(3-Chlorophenyl)-5-(cyclohexylmethyl)-12-methyl-3,6,11-trioxo-8-(((S)-2-oxopyrrolidin-3-yl)methyl)-2,10-dioxa-4,7-diazatridecane-9-sulfonate], in assay [1] (setting [3]), the EC50 came to 0.03 µM. In addition, the IC50 in assay [2] (setting [4]) was determined as 300 nM.

Regarding `O=C(N[C@@H](CC1CCCCC1)C(=O)N[C@@H](C[C@@H]1CCNC1=O)C(OC(=O)C1CCCCC1)S(=O)(=O)O)OCc1cccc(Cl)c1` (stereo partly drawn) [Compound 14, (5 S,8S)-1-(3-Chlorophenyl)-11-cyclohexyl-5-(cyclohexylmethyl)-3,6,11-trioxo-8-(((S)-2-oxopyrrolidin-3-yl)methyl)-2,10-dioxa-4,7-diazaundecane-9-sulfonate], in assay [1] (setting [3]), the EC50 turned out to be 0.02 µM. The IC50 in assay [2] (setting [4]) was found to be 400 nM.

On to `CC(=O)OC([C@H](C[C@@H]1CCNC1=O)NC(=O)[C@H](CC1CCCCC1)NC(=O)OCc1ccccc1)S(=O)(=O)O` (stereo partly drawn) [Compound 15, (5S,8S)-5-(Cyclohexylmethyl)-3,6,11-trioxo-8-(((S)-2-oxopyrrolidin-3-yl)methyl)-1-phenyl-2,10-dioxa-4,7-diazadodecane-9-sulfonate], for which, in assay [1] (setting [3]), the EC50 is 0.2 µM. Besides, the IC50 in assay [2] (setting [4]) was 7500 nM.

With `O=C(N[C@@H](CC1CCCCC1)C(=O)N[C@@H](C[C@@H]1CCNC1=O)C(OC(=O)C1CCCCC1)S(=O)(=O)O)OCc1ccccc1` (stereo partly drawn) [Compound 16, (5S,8S)-11-Cyclohexyl-5-(cyclohexylmethyl)-3,6,11-trioxo-8-(((S)-2-oxopyrrolidin-3-yl)methyl)-1-phenyl-2,10-dioxa-4,7-diazaundecane-9-sulfonate], the EC50 in assay [1] (setting [3]) was 0.06 µM. Also, the IC50 in assay [2] (setting [4]) was 600 nM.

For `CCCCCCOC(=O)OC([C@H](CC1CCNC1=O)NC(=O)[C@H](CC1CCCCC1)NC(=O)OCc1cccc(Cl)c1)S(=O)(=O)O` (some centres unmarked) [Compound 17, (5 S, 8S)-1-(3-chlorophenyl)-5-(cyclohexylmethyl)-3,6,11-trioxo-8-((2-oxo-pyrrolidin-3-yl)methyl)-2,10,12-trioxa-4,7-diazaoctadecane-9-sulfonate], in assay [1] (setting [3]), the EC50 came to 0.025 µM. Further, the IC50 in assay [2] (setting [4]) stood at 800 nM.

For `COC(=O)CNC(=O)OC([C@H](C[C@@H]1CCNC1=O)NC(=O)[C@H](CC(C)C)NC(=O)OCc1ccccc1)S(=O)(=O)O` (stereo partly drawn) [Compound 18, (5 S,8S)-5-Isobutyl-3,6,11,14-tetraoxo-8-(((S)-2-oxopyrrolidin-3-yl)methyl)-1-phenyl-2,10,15-trioxa-4,7,12-triazahexadecane-9-sulfonate], the EC50 in assay [1] (setting [5]) is 0.4 µM. Further, the IC50 in assay [2] (setting [6]) is 3100 nM.

Consider `COC(=O)C(C)NC(=O)OC([C@H](C[C@@H]1CCNC1=O)NC(=O)[C@H](CC(C)C)NC(=O)OCc1ccccc1)S(=O)(=O)O` (stereo partly drawn) [Compound 19, (5 S,8S)-5-Isobutyl-13-methyl-3,6,11,14-tetraoxo-8-(((S)-2-oxopyrrolidin-3-yl)methyl)-1-phenyl-2,10,15-trioxa-4,7,12-triazahexadecane-9-sulfonate], for which the EC50 in assay [1] (setting [5]) came out at 0.3 µM. In assay [2] (setting [6]), the IC50 was found to be 1800 nM.

Take `COC(=O)C(NC(=O)OC([C@H](C[C@@H]1CCNC1=O)NC(=O)[C@H](CC(C)C)NC(=O)OCc1ccccc1)S(=O)(=O)O)C(C)C` (stereo partly drawn) [Compound 20, (5 S,8S)-5-Isobutyl-13-isopropyl-3,6,11,14-tetraoxo-8-(((S)-2-oxopyrrolidin-3-yl)methyl)-1-phenyl-2,10,15-trioxa-4,7,12-triazahexadecane-9-sulfonate]: the EC50 in assay [1] (setting [5]) was found to be 0.4 µM. The IC50 in assay [2] (setting [6]) amounted to 2500 nM.

Turning to `COC(=O)C(C)NC(=O)OC([C@H](C[C@@H]1CCNC1=O)NC(=O)[C@H](CC1CCCCC1)NC(=O)OCc1cccc(Cl)c1)S(=O)(=O)O` (stereo partly drawn) [Compound 21, (5 S, 8S)-1-(3-Chlorophenyl)-5-(cyclohexylmethyl)-13-methyl-3,6,11,14-tetraoxo-8-(((S)-2-oxopyrrolidin-3-yl)methyl)-2,10,15-trioxa-4,7,12-triazahexadecane-9-sulfonate], the EC50 in assay [1] (setting [5]) was found to be 0.025 µM. Further, the IC50 in assay [2] (setting [6]) was 800 nM.

As for `O=C[C@H](C[C@@H]1CCNC1=O)NC(=O)[C@H](CC1CCCCC1)NC(=O)OCc1cccc(Cl)c1` [Compound 25, reference compound], the EC50 in assay [1] (Norovirus, HG23, in μM, read-out: EC50) worked out at 0.02 µM.

The values are drawn from patent US11033600B2, “Protease transition state inhibitor prodrugs” (priority 2016, dated 2021).
